Test results taken from US12054562B2, “Cell-permeable inhibitory agent and methods of use thereof in treatment of cognitive and mood disorders” (priority 2015, dated 2024).

Tests used:
α5GABAA receptors = assay: Surface biotinylation assay of α5 subunit in ex vivo brain slices after i.p. peptide; parameters: species or system mouse; details: peptide 20 mg/kg, etomidate-treated adult male mice
Procedure: We next asked whether injection of inhibitory peptide, when administered to mice in vivo by I.P. injection, reduced the level of α5GABAA receptors expressed in the hippocampus. To test whether the peptide reduces α5GABAA receptor cell-surface expression in vivo, we took advantage of a mouse model that we developed recently (Zurek, et al., 2014), in which up-regulation of α5GABAA receptor cell surface expression causes memory deficits. Adult mice (22-25 g) were treated with etomidate (8 mg/kg, i.p.), and sacrificed 24 hrs later according to a protocol approved by the Animal Care Committee of the University of Toronto. The hippocampi were collected and subject to experiments. We first measured the level of radixin phosphorylation, because radixin phosphorylation is required for the recruitment of α5GABAA receptors to extrasynaptic sites of the neurons (Loebrich et al., 2006; Hausrat et al., 2015). The antibody against threonine at 564 of radixin, which is specific for radixin phosphorylation involving α5GABAA receptor extra-synaptic trafficking, was used for these studies (Choii et al., 2015; Hausrat et al., 2015). […] We next examined whether the inhibitory peptide prevented α5GABAA receptor from trafficking to surface membrane in vivo by studying ex vivo brain slices. […]

[1] = biological target: T1, α2 subunit containing GABAA receptors (Mus musculus, UniProt P26048); assay: Co-IP and WB, gephyrin and α2 subunit containing GABAA receptors; assay type: binding; details: immunoprecipitates from Example 1, hippocampal tissue
T1 construct: α1 and α2 subunit containing GABAA receptors in the hippocampal tissue; from tissue; host or cells: hippocampus of adult mice
T1 sequence (P26048 29-451): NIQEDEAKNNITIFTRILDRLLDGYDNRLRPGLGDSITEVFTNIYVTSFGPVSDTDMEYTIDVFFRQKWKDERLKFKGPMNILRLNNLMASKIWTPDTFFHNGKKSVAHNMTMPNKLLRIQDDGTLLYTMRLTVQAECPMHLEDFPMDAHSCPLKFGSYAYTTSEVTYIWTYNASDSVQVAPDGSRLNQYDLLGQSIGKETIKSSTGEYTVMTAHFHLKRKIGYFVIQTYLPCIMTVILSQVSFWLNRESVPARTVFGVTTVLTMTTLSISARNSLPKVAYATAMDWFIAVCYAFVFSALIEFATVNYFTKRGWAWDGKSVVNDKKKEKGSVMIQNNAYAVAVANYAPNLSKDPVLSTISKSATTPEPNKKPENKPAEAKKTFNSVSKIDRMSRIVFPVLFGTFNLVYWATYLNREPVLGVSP

[2] = tested on: α5GABAA receptor cell-surface expression; assay: Receptor cell-surface ELISA assay in cultured hippocampal neurons; assay type: cell-based, mouse; details: peptide 2 μM, 24 hrs, astrocyte-conditioned medium (etomidate 1 μM, 1 hr)
Procedure: This experimental cell culture model was used to test the effects of the inhibitory peptide on an overexpression of α5GABAA receptors on the surface of neurons. The medium from astrocytes that were treated with etomidate (1 μM, 1 hr) (conditioned medium) was collected, and the medium bathing cultured hippocampal neurons was exchanged with the astrocyte-conditioned medium. The cells were incubated at 37° C., 5% CO2 with the peptide or scramble peptide (2 μM). After 24 hrs incubation, the cells were used for receptor cell-surface ELISA assay. The cells were fixed in 4% paraformaldehyde for 20 min in the presence (permeabilized) or absence (non-permeabilized) of 1% Triton-X100. The cells, after 3 times wash with cold PBS and blocked with 5% bovine album solution, were incubated with a α5 antibody (Santa Cruz Biotech Inc.) at 4° C. overnight. The next day the cells were thoroughly washed with PBS and incubated with the horseradish peroxidase (HRP)-conjugated secondary antibody for 2 hrs. With HRP substrate added and color developed in the medium, the results were determined with microplate reader.
The cell surface expression of α5 subunit was presented as the ratio of the colorimetric reading under non-permeabilized conditions to those permeabilized conditions. Consistent with the previous report, etomidate increases α5GABAA receptor surface expression. This increase was blocked by the specific peptide, but not the scramble peptide (FIG. 6A).
For astrocyte culture, cortical astrocytes were isolated from embryonic day 18 (E18) mouse embryos. Cells were allowed to grow to confluence in MEM and 10% fetal bovine serum (FBS; Life Technologies, Grand Island, New York) for 14 d. Cells were then enzymatically dissociated with trypsin-EDTA (0.05%; Life Technologies, Grand Island, New York), and passaged three times to obtain a nearly pure astrocytic culture. Astrocytes were then plated at a density of 25,000 cells per dish. […]

[3] = tested on: GABAA receptor-mediated tonic current in hippocampal neurons; assay: Whole-cell voltage-clamp recordings of tonic current in astrocyte-neuron co-cultures; assay type: cell-based, mouse; details: co-treatment with etomidate 1 μM; recordings 24 h later
[4] = biological target: T2, α1 subunit containing GABAA receptors (Mus musculus, UniProt P62812); assay: Co-IP and WB, gephyrin and α1 subunit containing GABAA receptors; assay type: binding; details: immunoprecipitates from Example 1, hippocampal tissue
T2 construct: α1 and α2 subunit containing GABAA receptors in the hippocampal tissue; from tissue; host or cells: hippocampus of adult mice
T2 sequence (P62812 28-455): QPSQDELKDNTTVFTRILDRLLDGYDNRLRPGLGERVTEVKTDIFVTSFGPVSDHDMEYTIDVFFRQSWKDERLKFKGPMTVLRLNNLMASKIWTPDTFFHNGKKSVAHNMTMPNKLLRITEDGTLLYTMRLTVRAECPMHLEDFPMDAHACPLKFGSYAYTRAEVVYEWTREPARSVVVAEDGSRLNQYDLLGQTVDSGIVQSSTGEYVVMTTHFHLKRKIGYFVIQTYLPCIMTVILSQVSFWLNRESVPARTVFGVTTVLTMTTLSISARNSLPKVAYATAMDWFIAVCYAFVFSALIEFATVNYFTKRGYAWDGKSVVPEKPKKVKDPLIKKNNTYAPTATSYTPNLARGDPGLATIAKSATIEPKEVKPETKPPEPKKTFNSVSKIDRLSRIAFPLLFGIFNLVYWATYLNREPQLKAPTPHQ

NYFTKRGWAWDGKKAL [inhibitory peptide]
expression of α5GABAA receptors on the cell surface (α5GABAA receptors): selectively prevented
α5GABAA total protein production (α5GABAA receptors): did not change
effects on α2 subunit containing GABAA receptors (gephyrin interaction) [1]: did not have any effects
etomidate-induced increase in α5GABAA receptor surface expression [2]: blocked
etomidate-induced increase in tonic current [3]: reversed
effects on α1 subunit containing GABAA receptors (gephyrin interaction) [4]: did not have any effects
